Columns and labels:
[1] = molecular target: T1, Glutamate receptor ionotropic, NMDA 1 (Rattus norvegicus, UniProt P35439); test: In vitro inhibitory activity to inhibit [3H]glycine binding to NMDA receptor
Glutamate NMDA receptor = test: In vitro concentration eliciting half-maximal effect on [3H]-MK 801 radioligand binding to NMDA receptor; format: protein-complex assay
[2] = In vitro maximal effect on [3H]-MK 801 binding to NMDA receptor as compared to a basal value of 100%
[3] = molecular target: T1, Glutamate receptor ionotropic, NMDA 1; test: In vitro inhibitory activity to inhibit [3H]glycine binding to NMDA receptor; IA means inactive

Row | ME [2] [%] | IC50 [3] | Compound | other results
1 | 18 | – | C[C@@H]1CN(O)C(=O)[C@@H]1N | IC50 [1]: 1.87 µM; EC50 (Glutamate NMDA receptor): 9.5 µM
2 | – | Not Active | NC1CCONC1=O (stereo not drawn) | –
3 | – | Not Active | CC1ONC(=O)C1N (stereo not drawn) | –
4 | – | Not Active | O=C1CNCN1 | –
5 | 122 | – | N[C@@H]1CONC1=O | –
6 | – | Not Active | NC1CS(=O)(=O)NC1=O (stereo not drawn) | –

Further lines, the molecule ahead of its results:

Row | Compound | ME [2] [%] | IC50 [3] | other results
7 | O=C1CCCN1O | – | Not Active | –
8 | CC1NCN(O)C1=O (stereo not drawn) | – | – | IC50 [1]: 78 µM
9 | CC1NCC(=O)N1O (stereo not drawn) | – | – | IC50 [1]: 83 µM
10 | O=C1CCNCN1O | – | Not Active | –
11 | N[C@H](CO)C(=O)O | 169 | – | –
12 | CC1NC(C)N(O)C1=O (stereo not drawn) | – | Not Active | –
13 | NCC(=O)O | 159 | – | –
14 | O=C1C(CO)NCN1O (stereo not drawn) | – | – | IC50 [1]: 78 µM
15 | O=C1CNCN1O | 146 | – | EC50 (Glutamate NMDA receptor): 4.33 µM
